Measurements reported in patent US8846690B2, “Heterocyclic carboxylic acid derivatives having a 2,5-substituted oxazolopyrimidine ring” (Sanofi, priority 2010, dated 2014).

Target: T1, human Edg-1 receptor (Homo sapiens, UniProt P21453)
T1 construct: FLAG (N); expressed in transfected cells; membrane preparation
Assay: GTP-γ-S assay using human Edg-1 receptors (scintillation proximity assay, CHO Flp-In membrane preparation)
Assay type: biochemical
Settings: test compound 10 μM; high control 10 μM S1P regarded as 100% activation; background-corrected; triplicate
From the text: Determination of the Pharmacological Activity A) GTP-γ-S Assay Using Human Edg-1 Receptors
In order to determine the Edg-1 receptor activation by the compounds of the invention, a GTP-γ-S (guanosine 5′-[y-thio]triphosphate) assay for G-protein coupled receptor binding based on the scintillation proximity assay principle was used, employing a cell membrane preparation from a CHO Flp-In cell line which constitutively overexpresses the human Edg-1 receptor.
A membrane preparation was obtained by standard methods from the afore-described CHO Flp-In cell line constitutively overexpressing the human Edg-1 receptor. Briefly, the cryopreserved cells were taken in culture and grown until confluency in T175 cell culture flasks (Becton Dickinson, cat. no. 35 5001). Cell culture was stopped by washing with calcium-free phosphate-buffered saline (PBS; Gibco, cat. no. 14190), and cells were harvested with a rubber-policeman in 4° C. cold and calcium-free PBS supplemented with a protease inhibitor cocktail (complete protease inhibitor; Roche, cat. no. 1697498; 1 tablet per 50 ml) and subsequently centrifuged at 4° C. for 15 min at 1100×g (Heraeus Minifuge T). For cell lysis, the pellet was resuspended in a 4° C. cold hypotonic buffer consisting of 5 mM HEPES (Sigma-Aldrich, cat. no. H-0981), 1 mM EDTA (disodium salt; Merck, cat. No. 8418) supplemented with protease inhibitor cocktail (as above) in which cells were stored for another 15 min on ice. After lysis, cells were centrifuged at 4° C. for 10 min at 400×g (Heraeus Minifuge T). The pellet was disrupted in a Dounce homogenizer, diluted with the supernatant of the previous centrifugation and subsequently centrifuged at 4° C. for 10 min at 500×g (Heraeus Minifuge T) in order to separate nuclei and still intact cells from the membranes mainly present in the supernatant. The supernatant was then diluted in hypotonic buffer and centrifuged (Beckmann, Avanti J251) at approximately 18600×g for 2 h at 4° C. […] Protein concentration of the membrane preparation was determined in a sample by means of a commercial protein assay (Bio-Rad, DC Protein Assay, cat. nos. 500-0113, 500-0114, 500-0115).
The Edg-1 membrane preparation obtained in (b) was employed in a commercially available scintillation proximity assay (SPA) kit for G-protein coupled receptor binding from Amersham Biosciences/GE Healthcare (code RPNQ0210), in which ligand-induced binding of ^35S-radiolabled GTP-γ-S to the receptor-containing membrane, which is bound to scintillation beads, stimulates the emission of light and allows to quantify the in vitro activity of the Edg-1 agonistic compound. […]

T1 sequence (P21453 whole entry): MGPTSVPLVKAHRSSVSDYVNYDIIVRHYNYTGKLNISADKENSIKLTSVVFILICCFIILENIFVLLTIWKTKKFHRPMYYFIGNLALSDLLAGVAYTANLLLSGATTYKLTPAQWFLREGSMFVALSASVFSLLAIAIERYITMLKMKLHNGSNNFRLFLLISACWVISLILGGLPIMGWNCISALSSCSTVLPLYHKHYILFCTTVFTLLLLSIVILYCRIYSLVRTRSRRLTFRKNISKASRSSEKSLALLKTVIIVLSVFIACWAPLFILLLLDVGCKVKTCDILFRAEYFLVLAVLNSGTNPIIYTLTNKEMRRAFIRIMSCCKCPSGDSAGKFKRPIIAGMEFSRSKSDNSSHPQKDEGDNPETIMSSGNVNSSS

Edg-1 receptor activation in percent of the activation by 10 μM S1P (% Activation)	Compound
115%	Cc1cc(-c2nc3cnc(Oc4ccccc4F)nc3o2)cc(C)c1OCC(=O)N1CCC[C@H]1C(=O)O [Example 1, (S)-1-(2-{4-[5-(2-Fluoro-phenoxy)-oxazolo[5,4-d]pyrimidin-2-yl]-2,6-dimethyl-phenoxy}-acetyl)-pyrrolidine-2-carboxylic acid]
93%	Cc1cc(-c2nc3cnc(Oc4ccccc4F)nc3o2)cc(C)c1OC(C)C(=O)N1CCC[C@H]1C(=O)O (stereo partly drawn) [Example 2, (S)-1-(2-{4-[5-(2-Fluoro-phenoxy)-oxazolo[5,4-d]pyrimidin-2-yl]-2,6-dimethyl-phenoxy}-propionyl)-pyrrolidine-2-carboxylic acid]
103%	O=C(O)[C@@H]1CCCN1C(=O)CCc1ccc(-c2nc3cnc(Oc4ccccc4F)nc3o2)cc1 [Example 4, (S)-1-(3-{4-[5-(2-Fluoro-phenoxy)-oxazolo[5,4-d]pyrimidin-2-yl]-phenyl}-propionyl)-pyrrolidine-2-carboxyl is acid]
82%	O=C(O)[C@@H]1CCCN1C(=O)/C=C/c1ccc(-c2nc3cnc(Oc4ccccc4F)nc3o2)cc1 [Example 3, (S)-1-((E)-3-{4-[5-(2-Fluoro-phenoxy)-oxazolo[5,4-d]pyrimidin-2-yl]-phenyl}-acryloyl)-pyrrolidine-2-carboxylic acid]
